{"source": "the supplement of paper PMC10307832", "test_in_all_cases": "relative viability (nuclei count vs DMSO), 5 days (fraction); higher = more cells survive", "key": {"HARA": {"tested_on": "HARA", "procedure,_shortened": "(§1)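 Each reported value is a median over duplicate plates. It expresses relative viability: treated-well nuclei count divided by vehicle-well nuclei count. Lung cancer cell lines in 1536-well plates were dosed by pin tool a day after seeding, alone with one drug or with a fixed anchor-drug dose plus five library-drug doses (not always all listed) in √10 steps, and nuclei were counted after 5 days.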"}, "HCC-366": {"tested_on": "HCC-366", "procedure,_shortened": "as §1"}, "SK-LU-1": {"tested_on": "SK-LU-1", "procedure,_shortened": "as §1"}, "NCI-H727": {"tested_on": "NCI-H727", "procedure,_shortened": "as §1"}, "NCI-H1975": {"tested_on": "NCI-H1975", "procedure,_shortened": "as §1"}, "NCI-H1395": {"tested_on": "NCI-H1395", "procedure,_shortened": "as §1"}, "HCC-44": {"tested_on": "HCC-44", "procedure,_shortened": "as §1"}, "UMC-11": {"tested_on": "UMC-11", "procedure,_shortened": "as §1"}, "NCI-H1792": {"tested_on": "NCI-H1792", "procedure,_shortened": "as §1"}, "NCI-H2023": {"tested_on": "NCI-H2023", "procedure,_shortened": "as §1"}, "NCI-H661": {"tested_on": "NCI-H661", "procedure,_shortened": "as §1"}, "HCC-827": {"tested_on": "HCC-827", "procedure,_shortened": "as §1"}}, "data": [{"compound": "O=c1[nH]c2ccccc2n1C1CCN(CCCC(c2ccc(F)cc2)c2ccc(F)cc2)CC1", "note": "[Pimozide] + CC(=O)c1c(C)c2cnc(Nc3ccc(N4CCNCC4)cn3)nc2n(C2CCCC2)c1=O [Palbociclib] (partner 0.5 µM)", "values": [{"measurement": "relative viability", "setting": "HARA; first compound 2.53 µM", "result": 0.255}, {"measurement": "relative viability", "setting": "HARA; first compound 8 µM", "result": 0.178}, {"measurement": "relative viability", "setting": "HCC-366; first compound 0.08 µM", "result": 0.38}, {"measurement": "relative viability", "setting": "HCC-366; first compound 0.253 µM", "result": 0.404}, {"measurement": "relative viability", "setting": "HCC-366; first compound 0.8 µM", "result": 0.345}, {"measurement": "relative viability", "setting": "HCC-366; first compound 2.53 µM", "result": 0.379}, {"measurement": "relative viability", "setting": "HCC-366; first compound 8 µM", "result": 0.357}, {"measurement": "relative viability", "setting": "SK-LU-1; first compound 0.08 µM", "result": 0.384}, {"measurement": "relative viability", "setting": "SK-LU-1; first compound 0.253 µM", "result": 0.533}, {"measurement": "relative viability", "setting": "SK-LU-1; first compound 0.8 µM", "result": 0.404}, {"measurement": "relative viability", "setting": "SK-LU-1; first compound 2.53 µM", "result": 0.377}, {"measurement": "relative viability", "setting": "SK-LU-1; first compound 8 µM", "result": 0.348}, {"measurement": "relative viability", "setting": "NCI-H727; first compound 0.08 µM", "result": 0.544}, {"measurement": "relative viability", "setting": "NCI-H727; first compound 0.253 µM", "result": 0.661}, {"measurement": "relative viability", "setting": "NCI-H727; first compound 0.8 µM", "result": 0.696}, {"measurement": "relative viability", "setting": "NCI-H727; first compound 2.53 µM", "result": 0.676}, {"measurement": "relative viability", "setting": "NCI-H727; first compound 8 µM", "result": 0.609}, {"measurement": "relative viability", "setting": "NCI-H1975; first compound 0.08 µM", "result": 0.402}, {"measurement": "relative viability", "setting": "NCI-H1975; first compound 0.253 µM", "result": 0.515}, {"measurement": "relative viability", "setting": "NCI-H1975; first compound 0.8 µM", "result": 0.619}, {"measurement": "relative viability", "setting": "NCI-H1975; first compound 2.53 µM", "result": 0.593}, {"measurement": "relative viability", "setting": "NCI-H1975; first compound 8 µM", "result": 0.494}, {"measurement": "relative viability", "setting": "NCI-H1395; first compound 0.08 µM", "result": 0.579}, {"measurement": "relative viability", "setting": "NCI-H1395; first compound 0.253 µM", "result": 0.655}, {"measurement": "relative viability", "setting": "NCI-H1395; first compound 0.8 µM", "result": 0.538}, {"measurement": "relative viability", "setting": "NCI-H1395; first compound 2.53 µM", "result": 0.623}, {"measurement": "relative viability", "setting": "NCI-H1395; first compound 8 µM", "result": 0.578}, {"measurement": "relative viability", "setting": "HCC-44; first compound 0.08 µM", "result": 0.975}, {"measurement": "relative viability", "setting": "HCC-44; first compound 0.253 µM", "result": 0.982}, {"measurement": "relative viability", "setting": "HCC-44; first compound 0.8 µM", "result": 0.946}, {"measurement": "relative viability", "setting": "HCC-44; first compound 2.53 µM", "result": 0.925}, {"measurement": "relative viability", "setting": "HCC-44; first compound 8 µM", "result": 0.859}, {"measurement": "relative viability", "setting": "UMC-11; first compound 0.08 µM", "result": 0.313}, {"measurement": "relative viability", "setting": "UMC-11; first compound 0.253 µM", "result": 0.35}, {"measurement": "relative viability", "setting": "UMC-11; first compound 0.8 µM", "result": 0.315}, {"measurement": "relative viability", "setting": "UMC-11; first compound 2.53 µM", "result": 0.278}, {"measurement": "relative viability", "setting": "UMC-11; first compound 8 µM", "result": 0.367}, {"measurement": "relative viability", "setting": "NCI-H1792; first compound 0.08 µM", "result": 0.665}, {"measurement": "relative viability", "setting": "NCI-H1792; first compound 0.253 µM", "result": 0.635}, {"measurement": "relative viability", "setting": "NCI-H1792; first compound 0.8 µM", "result": 0.625}, {"measurement": "relative viability", "setting": "NCI-H1792; first compound 2.53 µM", "result": 0.589}, {"measurement": "relative viability", "setting": "NCI-H1792; first compound 8 µM", "result": 0.52}, {"measurement": "relative viability", "setting": "NCI-H2023; first compound 0.08 µM", "result": 0.337}, {"measurement": "relative viability", "setting": "NCI-H2023; first compound 0.253 µM", "result": 0.39}, {"measurement": "relative viability", "setting": "NCI-H2023; first compound 0.8 µM", "result": 0.341}, {"measurement": "relative viability", "setting": "NCI-H2023; first compound 2.53 µM", "result": 0.333}, {"measurement": "relative viability", "setting": "NCI-H2023; first compound 8 µM", "result": 0.245}, {"measurement": "relative viability", "setting": "NCI-H661; first compound 0.08 µM", "result": 0.4}, {"measurement": "relative viability", "setting": "NCI-H661; first compound 0.253 µM", "result": 0.412}, {"measurement": "relative viability", "setting": "NCI-H661; first compound 0.8 µM", "result": 0.367}, {"measurement": "relative viability", "setting": "NCI-H661; first compound 2.53 µM", "result": 0.395}, {"measurement": "relative viability", "setting": "NCI-H661; first compound 8 µM", "result": 0.327}, {"measurement": "relative viability", "setting": "HCC-827; first compound 0.253 µM", "result": 0.449}, {"measurement": "relative viability", "setting": "HCC-827; first compound 0.8 µM", "result": 0.459}, {"measurement": "relative viability", "setting": "HCC-827; first compound 2.53 µM", "result": 0.484}, {"measurement": "relative viability", "setting": "HCC-827; first compound 8 µM", "result": 0.514}]}]}
